Data on ten compounds can be found in patent US12570612B2, “Substituted nitrogen heterocyclic compound and anesthetic effect thereof” (priority 2019, dated 2026).

Entries after “also recorded” stand apart in the source; their conditions may differ. Like-named read-outs stand apart in the source and are kept apart here.

For one series, the system named is H295R cell line. In words: Adrenocortical function in vitro test: secretion of cortisol and corticosterone, Group A compounds. Type of series: cell-based. Particulars: H295 cells; for EC50: 0.1-10000 nM, HPLC-MS/MS.
Series [1] relates to Sprague-Dawley rats. Put plainly: animal or person. To be noted: for Approximate therapeutic index / Minimal lethal dose: rats. How it is done: Adult male Sprague-Dawley rats (250-300 g) were selected for the experiment. […] The anesthesia effects of the compounds were assessed in rats using a LORR assay and a period >30 s was considered as an indicator of general anesthesia.

In series [2] the test system is Sprague-Dawley rats. In words: Pharmacological characteristics at equivalent doses (2ED50), Group A compounds. The series is classed as in vivo. The arrangement: Sedation duration: unit not given here. Particulars: 2ED50, tail vein; for Types and incidence of adverse reactions: (animals affected/animals).
Setting [3] is: Homo sapiens, read-out: EC50 (Corticosterone).
Where [4] appears, read: Homo sapiens, read-out: EC50 (Cortisol).

Turning to `CC#CCOC(=O)c1ccnn1[C@H](C)c1ccccc1` [Compound A23], in the series with H295R cell line, the “Corticosterone as an indicator to determine the presence of inhibition” value (shortened to “Corticosterone as an indicator … of inhibition”) was 0 and the “Cortisol as an indicator to determine the presence of inhibition” value (“Cortisol as an indicator … of inhibition” for short) is on record as 0. Moreover, the EC50 in the series on H295R cell line (setting [3]) is greater than 100 nM. Besides, in the series with H295R cell line (setting [4]), the EC50 is greater than 100 nM. This compound also registered an ED50 in the series with Sprague-Dawley rats [1] (Rattus norvegicus) of 2 to 6 mg/kg. Also, in the series on Sprague-Dawley rats [1], the Approximate therapeutic index was greater than 5 and the Minimal lethal dose is reported as greater than 11 mg/kg. In the series on Sprague-Dawley rats [2], the Onset time was found to be 0.48 ± 0.14 min; the Righting reflex duration worked out at 2.28 ± 1.83 min; the “Types and incidence of adverse reactions” value was “Red and urine(8/8), Euphoria(6/8), and Hindlimb rigidity and (2/8), Tremor(1/8), and Convulsions(1/8)”.

`CCC(CC)OC(=O)c1ccnn1[C@H](C)c1ccccc1` [Compound A21]: in the series with H295R cell line, the “Corticosterone as an indicator … of inhibition” value is recorded as 0 and the “Cortisol as an indicator … of inhibition” value is 0. Further, the EC50 with H295R cell line (read-out: EC50 (Corticosterone)) was greater than 100 nM. The EC50 in the series with H295R cell line (read-out: EC50 (Cortisol)) was greater than 100 nM. In addition, the ED50 result with Sprague-Dawley rats [1] (LORR in rats, tail vein, brackets = 95% confidence limit) was “D (D indicates that the measured ED50 is in the range of 2.00-6.00 mg/kg (excluding 2.00 mg/kg, including 6.00 mg/kg))”. Also, in the series on Sprague-Dawley rats [1], the Approximate therapeutic index is greater than 16 and the Minimal lethal dose is recorded as greater than 6 mg/kg. Further, in the series with Sprague-Dawley rats [2], the Onset time is reported as 0.51 ± 0.10 min; the Righting reflex duration turned out to be 1.16 ± 0.39 min; the Sedation duration amounted to 8.65 ± 2.38; the “Types and incidence of adverse reactions” value is “Red and urine(8/8), Euphoria(3/8), and Four limbs Tremor(2/8), and Hindlimb rigidity (2/8)”.

With `C=C=CC1(OC(=O)c2c(F)cnn2[C@H](C)c2ccccc2)COC1` [Compound A73], in the series with H295R cell line, the “Corticosterone as an indicator … of inhibition” value is recorded as 0 and the “Cortisol as an indicator … of inhibition” value is 0. In addition, the concentration giving a half-maximal response (EC50) in the series with H295R cell line (setting [3]) was greater than 1000 nM. Further, the EC50 in the series on H295R cell line (setting [4]) was greater than 1000 nM. Besides, the 50% effective dose (ED50) in the series with Sprague-Dawley rats [1] (Rattus norvegicus) was 0.04 to 0.5 mg/kg. In the series with Sprague-Dawley rats [1], this compound returned an Approximate therapeutic index greater than 25 and a Minimal lethal dose greater than 2 mg/kg. Also, in the series with Sprague-Dawley rats [2], the Onset time is given as 0.42 ± 0.07 min; the Righting reflex duration worked out at 1.21 ± 0.45 min; the “Types and incidence of adverse reactions” value was “Red and urine(8/8), Tremor(3/8), and Facial muscle and twitching(2/8), Euphoria and (1/8), Nod(1/8)”.

`COC(=O)C1=C(OC(=O)c2cc(F)nn2[C@H](C)c2ccccc2)CCCC1` [Compound A54]: in the series with H295R cell line, the “Corticosterone as an indicator … of inhibition” value is 0 and the “Cortisol as an indicator … of inhibition” value is on record as 0. In the series on H295R cell line (setting [3]), the EC50 is greater than 100 nM. Further, in the series on H295R cell line (setting [4]), the EC50 is greater than 100 nM. The ED50 in the series with Sprague-Dawley rats [1] (Rattus norvegicus) was 1 to 2 mg/kg. Further, in the series with Sprague-Dawley rats [1], the Approximate therapeutic index is on record as greater than 9 and the Minimal lethal dose was greater than 12 mg/kg. Besides, in the series with Sprague-Dawley rats [2], the Onset time is on record as 0.69 ± 0.11 min; the Righting reflex duration was determined as 2.13 ± 1.80 min; the “Types and incidence of adverse reactions” value was “rigidity; also recorded: (3/8), GeneralTremor(1/8); also recorded: Red urine(8/8), Hindlimb”.

Consider `C=CC1(OC(=O)c2cc(F)nn2[C@H](C)c2ccccc2)COC1` [Compound A65], for which, in the series with H295R cell line, the “Corticosterone as an indicator … of inhibition” value was 0 and the “Cortisol as an indicator … of inhibition” value amounted to 0. Further, in the series on H295R cell line (setting [3]), the concentration for a half-maximal effect (EC50) was greater than 100 nM. In addition, the half-maximal effective concentration (EC50) in the series on H295R cell line (setting [4]) is greater than 100 nM. The ED50 in the series with Sprague-Dawley rats [1] (Rattus norvegicus) fell in the range of 2 to 6 mg/kg. Besides, in the series with Sprague-Dawley rats [1], the Approximate therapeutic index is greater than 7 and the Minimal lethal dose is greater than 16 mg/kg. Also, in the series with Sprague-Dawley rats [2], the Onset time was 0.36 ± 0.15 min; the Righting reflex duration is given as 2.48 ± 0.67 min; the “Types and incidence of adverse reactions” value is “Red and urine(8/8), Tremor(2/8)”.

On to `CC#CC1(OC(=O)c2ccnn2[C@H](C)c2ccccc2)COC1` [Compound A10], for which, in the series with H295R cell line, the “Corticosterone as an indicator … of inhibition” value came to 0 and the “Cortisol as an indicator … of inhibition” value came to 0. The EC50 in the series on H295R cell line (setting [3]) is greater than 1000 nM. The EC50 in the series with H295R cell line (setting [4]) was greater than 1000 nM. This compound also gave an ED50 in the series on Sprague-Dawley rats [1] (Rattus norvegicus) of 2 to 6 mg/kg. In the series with Sprague-Dawley rats [1], this compound had an Approximate therapeutic index greater than 5 and a Minimal lethal dose greater than 12 mg/kg. Besides, in the series with Sprague-Dawley rats [2], the Onset time worked out at 0.43 ± 0.22 min; the Righting reflex duration is given as 1.32 ± 0.61 min; the “Types and incidence of adverse reactions” value is “Red urine(8/8),; also recorded: Tremor(3/8), Forelimb; also recorded: clonic; also recorded: convulsion(2/8), Hindlimb; also recorded: rigidity(2/8), Facial; also recorded: muscle twitching(2/8),; also recorded: Nod(1/8)”.

As to `C#CC1(OC(=O)c2cc(F)nn2[C@H](C)c2ccccc2)COC1` [Compound A53], in the series on H295R cell line, the “Corticosterone as an indicator … of inhibition” value stood at 0 and the “Cortisol as an indicator … of inhibition” value was determined as 0. Besides, the EC50 in the series on H295R cell line (setting [3]) is greater than 100 nM. The EC50 with H295R cell line (setting [4]) was greater than 100 nM. In the series with Sprague-Dawley rats [1] (Rattus norvegicus), this compound gave a 50% effective dose (ED50) of 2 to 6 mg/kg. Moreover, in the series with Sprague-Dawley rats [1], the Approximate therapeutic index is reported as greater than 6 and the Minimal lethal dose was greater than 14 mg/kg. Further, in the series with Sprague-Dawley rats [2], the Onset time is 0.53 ± 0.28 min; the Righting reflex duration worked out at 3.01 ± 1.22 min; the “Types and incidence of adverse reactions” value was “Red and urine(8/8), Tremor(2/8)”.

On to `CC(=O)C1=C(OC(=O)c2c(F)c(F)nn2[C@H](C)c2ccccc2)CCC1` [Compound A98], for which, in the series with H295R cell line, the “Corticosterone as an indicator … of inhibition” value worked out at 0 and the “Cortisol as an indicator … of inhibition” value came out at 0. Moreover, in the series with H295R cell line (setting [3]), the EC50 is greater than 1000 nM. Besides, the EC50 in the series with H295R cell line (setting [4]) is greater than 1000 nM. Moreover, the ED50 with Sprague-Dawley rats [1] (Rattus norvegicus) was in the range of 1 to 2 mg/kg. In the series with Sprague-Dawley rats [1], this compound gave an Approximate therapeutic index greater than 7 and a Minimal lethal dose greater than 10 mg/kg. In the series on Sprague-Dawley rats [2], the Onset time was found to be 0.30 ± 0.06 min; the Righting reflex duration is given as 1.89 ± 0.23 min; the “Types and incidence of adverse reactions” value is given as “Red urine(8/8), Facial; also recorded: muscle; also recorded: twitching(2/8), Hindlimb; also recorded: rigidity (1/8)”.

With `CC#CCOC(=O)c1c(F)cnn1[C@H](C)c1ccccc1` [Compound A72], in the series on H295R cell line, the “Corticosterone as an indicator … of inhibition” value turned out to be 0 and the “Cortisol as an indicator … of inhibition” value stood at 0. Besides, the EC50 with H295R cell line (setting [3]) was greater than 1000 nM. The EC50 in the series on H295R cell line (setting [4]) was greater than 1000 nM. Besides, the ED50 in the series with Sprague-Dawley rats [1] (Rattus norvegicus) lay within 0.04 to 0.5 mg/kg. For the same compound, in the series with Sprague-Dawley rats [1], the Approximate therapeutic index is greater than 100 and the Minimal lethal dose is greater than 11 mg/kg. Moreover, in the series with Sprague-Dawley rats [2], the Onset time is 0.41 ± 0.17 min; the Righting reflex duration is reported as 0.71 ± 0.20 min; the “Types and incidence of adverse reactions” value was “Red and urine(8/8), Tremor(1/8), and Hindlimb rigidity (1/8)”.

In the case of `COC(=O)C1=C(OC(=O)c2c(C(F)(F)F)cnn2[C@H](C)c2ccccc2)CCCC1` [Compound A101], in the series with H295R cell line, the “Corticosterone as an indicator … of inhibition” value is given as 0 and the “Cortisol as an indicator … of inhibition” value worked out at 0. The EC50 in the series with H295R cell line (setting [3]) was greater than 100 nM. The EC50 in the series with H295R cell line (setting [4]) is greater than 100 nM. In addition, the ED50 in the series on Sprague-Dawley rats [1] (Rattus norvegicus) lay within 1 to 2 mg/kg. In the series with Sprague-Dawley rats [1], this compound yielded an Approximate therapeutic index greater than 8 and a Minimal lethal dose greater than 13 mg/kg. For the same compound, in the series on Sprague-Dawley rats [2], the Onset time amounted to 0.39 ± 0.21 min; the Righting reflex duration is reported as 2.29 ± 0.65 min; the “Types and incidence of adverse reactions” value is “Red and urine(8/8), Euphoria(3/8), and Nod(2/8)”.

One may read the EC50 as the concentration that produces a half-maximal response. What is called ED50 is the dose at which the effect has come halfway, by size or by number of responders.
